The target of one test is JAK 3 (Homo sapiens (Human), UniProt P52333). Nature of the test: Biochemical potency on JAK3, TR-FRET LANCE Ultra kinase assay (compounds 1-92). To be noted: ATP at Km, read-out: JAK3 inhibitory activity (pIC50 class) (converted). The method, boiled down:
(§1)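 TR-FRET (LANCE Ultra) phosphorylation of ULight-JAK-1 peptide, ATP at Km: JAK1/JAK2/JAK3/TYK2 peptide 30/50/20/10 nM, ATP 20/0.7/0.2/12 μM, enzyme 0.15/0.083/0.025/0.144 ng/μL. 11-point 5-fold series from 20 μM; 1.5 h RT, EDTA stop, Eu-anti-pTyr detection 1 h; IC50 by variable-slope fit.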
In general terms: In TR-FRET formats the signal depends on donor and acceptor labels being close together.

Another test addresses JAK 1 (Homo sapiens (Human), UniProt P23458). Nature of the test: Biochemical potency on JAK1, TR-FRET LANCE Ultra kinase assay (compounds 1-92). The conditions noted are these: ATP at Km, read-out: JAK1 inhibitory activity (pIC50 class) (converted). The method, boiled down: as §1
A further test concerns the target TYK2 (Homo sapiens (Human), UniProt P29597). Nature of the test: Biochemical potency on Tyk2, TR-FRET LANCE Ultra kinase assay (compounds 1-92). The conditions noted are these: ATP at Km, read-out: Tyk2 inhibitory activity (pIC50 class) (converted). The method, boiled down:
as §1

Another test has as its target JAK 2 (Homo sapiens (Human), UniProt O60674). The experiment in a line: Biochemical potency on JAK2, TR-FRET LANCE Ultra kinase assay (compounds 1-92). The conditions noted are these: ATP at Km, read-out: JAK2 inhibitory activity (pIC50 class) (converted). The method, boiled down:
as §1

Chain of JAK 3 (P52333 whole entry): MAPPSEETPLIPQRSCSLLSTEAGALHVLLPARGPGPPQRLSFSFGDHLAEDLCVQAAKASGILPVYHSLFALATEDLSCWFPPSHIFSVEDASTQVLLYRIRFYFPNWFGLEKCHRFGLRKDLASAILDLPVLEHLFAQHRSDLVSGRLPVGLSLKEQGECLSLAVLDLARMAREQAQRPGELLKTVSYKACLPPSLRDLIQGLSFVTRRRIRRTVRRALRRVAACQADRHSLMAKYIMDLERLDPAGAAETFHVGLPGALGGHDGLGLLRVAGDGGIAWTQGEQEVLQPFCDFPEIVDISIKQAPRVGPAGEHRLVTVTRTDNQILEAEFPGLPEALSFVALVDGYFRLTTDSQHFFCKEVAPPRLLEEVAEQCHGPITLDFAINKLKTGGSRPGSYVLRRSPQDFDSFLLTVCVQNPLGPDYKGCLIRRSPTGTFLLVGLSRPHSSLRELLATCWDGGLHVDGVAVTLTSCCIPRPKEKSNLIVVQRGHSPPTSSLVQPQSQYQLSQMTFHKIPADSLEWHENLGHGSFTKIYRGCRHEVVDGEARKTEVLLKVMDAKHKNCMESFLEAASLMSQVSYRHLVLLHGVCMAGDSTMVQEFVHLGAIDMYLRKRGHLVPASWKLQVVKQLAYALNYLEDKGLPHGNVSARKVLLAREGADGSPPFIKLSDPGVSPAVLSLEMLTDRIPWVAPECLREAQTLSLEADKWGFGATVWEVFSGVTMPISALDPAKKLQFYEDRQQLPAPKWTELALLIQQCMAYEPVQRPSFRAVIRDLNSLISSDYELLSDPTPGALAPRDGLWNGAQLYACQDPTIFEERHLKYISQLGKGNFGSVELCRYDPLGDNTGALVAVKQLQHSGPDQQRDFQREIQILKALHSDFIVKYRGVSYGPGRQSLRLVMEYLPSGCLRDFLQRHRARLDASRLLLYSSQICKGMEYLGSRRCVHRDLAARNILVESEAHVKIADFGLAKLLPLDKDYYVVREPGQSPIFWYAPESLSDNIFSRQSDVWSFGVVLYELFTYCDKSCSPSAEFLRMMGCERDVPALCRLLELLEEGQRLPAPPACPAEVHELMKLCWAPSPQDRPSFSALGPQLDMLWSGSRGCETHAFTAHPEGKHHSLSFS
Chain of JAK 2 (O60674 whole entry): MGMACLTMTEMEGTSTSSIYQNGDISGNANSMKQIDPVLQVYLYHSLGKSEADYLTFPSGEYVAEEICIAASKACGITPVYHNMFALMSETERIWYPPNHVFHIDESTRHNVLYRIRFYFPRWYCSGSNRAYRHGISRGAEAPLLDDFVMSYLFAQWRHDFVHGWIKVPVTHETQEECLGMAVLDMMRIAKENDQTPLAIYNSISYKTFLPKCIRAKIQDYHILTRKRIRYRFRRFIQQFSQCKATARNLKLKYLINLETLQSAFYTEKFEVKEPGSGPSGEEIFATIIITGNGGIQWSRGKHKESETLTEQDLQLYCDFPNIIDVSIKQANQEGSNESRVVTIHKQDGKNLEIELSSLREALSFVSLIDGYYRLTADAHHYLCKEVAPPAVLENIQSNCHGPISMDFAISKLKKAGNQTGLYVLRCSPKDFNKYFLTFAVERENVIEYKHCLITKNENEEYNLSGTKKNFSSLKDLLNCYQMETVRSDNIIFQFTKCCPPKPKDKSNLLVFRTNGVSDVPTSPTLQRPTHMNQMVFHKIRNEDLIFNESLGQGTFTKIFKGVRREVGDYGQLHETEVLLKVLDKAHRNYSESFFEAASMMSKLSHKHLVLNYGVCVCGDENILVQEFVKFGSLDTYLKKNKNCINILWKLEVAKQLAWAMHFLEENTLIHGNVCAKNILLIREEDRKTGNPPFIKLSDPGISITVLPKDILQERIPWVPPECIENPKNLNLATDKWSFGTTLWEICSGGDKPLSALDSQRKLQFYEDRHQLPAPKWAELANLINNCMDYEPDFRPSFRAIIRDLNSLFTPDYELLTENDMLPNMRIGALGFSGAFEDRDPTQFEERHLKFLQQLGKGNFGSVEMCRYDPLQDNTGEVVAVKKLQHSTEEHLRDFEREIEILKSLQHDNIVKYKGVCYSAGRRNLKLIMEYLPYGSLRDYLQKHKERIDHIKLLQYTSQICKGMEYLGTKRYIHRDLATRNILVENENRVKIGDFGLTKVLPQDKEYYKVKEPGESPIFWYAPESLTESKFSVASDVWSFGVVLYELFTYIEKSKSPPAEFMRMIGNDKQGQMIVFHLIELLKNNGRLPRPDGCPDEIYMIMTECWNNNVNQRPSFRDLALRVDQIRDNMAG
Chain of JAK 1 (P23458 whole entry): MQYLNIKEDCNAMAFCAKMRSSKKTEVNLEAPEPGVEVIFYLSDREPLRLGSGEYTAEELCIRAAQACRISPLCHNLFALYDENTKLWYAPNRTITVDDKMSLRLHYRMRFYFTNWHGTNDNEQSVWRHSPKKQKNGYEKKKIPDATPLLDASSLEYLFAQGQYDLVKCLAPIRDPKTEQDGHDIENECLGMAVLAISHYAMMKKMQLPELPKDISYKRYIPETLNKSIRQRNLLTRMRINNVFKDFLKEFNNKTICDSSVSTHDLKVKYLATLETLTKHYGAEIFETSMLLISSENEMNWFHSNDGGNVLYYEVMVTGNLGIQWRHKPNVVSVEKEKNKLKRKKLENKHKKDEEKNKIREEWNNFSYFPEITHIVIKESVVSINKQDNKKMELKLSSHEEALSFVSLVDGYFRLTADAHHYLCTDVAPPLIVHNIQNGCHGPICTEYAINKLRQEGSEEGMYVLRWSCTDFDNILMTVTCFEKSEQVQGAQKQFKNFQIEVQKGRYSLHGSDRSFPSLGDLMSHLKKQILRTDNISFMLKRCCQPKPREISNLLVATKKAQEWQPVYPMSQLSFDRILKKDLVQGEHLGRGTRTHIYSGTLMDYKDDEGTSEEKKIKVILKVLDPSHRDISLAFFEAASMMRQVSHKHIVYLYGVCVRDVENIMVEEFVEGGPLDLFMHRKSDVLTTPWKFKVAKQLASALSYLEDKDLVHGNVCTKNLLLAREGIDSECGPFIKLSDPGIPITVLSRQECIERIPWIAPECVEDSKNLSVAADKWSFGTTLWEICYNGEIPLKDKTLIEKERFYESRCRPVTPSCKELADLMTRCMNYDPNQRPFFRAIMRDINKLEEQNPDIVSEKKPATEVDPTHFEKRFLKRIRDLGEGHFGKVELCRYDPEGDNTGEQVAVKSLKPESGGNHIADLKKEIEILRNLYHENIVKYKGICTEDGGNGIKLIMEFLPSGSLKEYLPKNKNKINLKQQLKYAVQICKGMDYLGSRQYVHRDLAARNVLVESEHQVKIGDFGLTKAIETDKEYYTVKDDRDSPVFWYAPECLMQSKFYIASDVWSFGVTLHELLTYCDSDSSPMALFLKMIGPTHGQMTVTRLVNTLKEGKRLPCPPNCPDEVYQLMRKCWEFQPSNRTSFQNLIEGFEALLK
Chain of TYK2 (P29597 whole entry): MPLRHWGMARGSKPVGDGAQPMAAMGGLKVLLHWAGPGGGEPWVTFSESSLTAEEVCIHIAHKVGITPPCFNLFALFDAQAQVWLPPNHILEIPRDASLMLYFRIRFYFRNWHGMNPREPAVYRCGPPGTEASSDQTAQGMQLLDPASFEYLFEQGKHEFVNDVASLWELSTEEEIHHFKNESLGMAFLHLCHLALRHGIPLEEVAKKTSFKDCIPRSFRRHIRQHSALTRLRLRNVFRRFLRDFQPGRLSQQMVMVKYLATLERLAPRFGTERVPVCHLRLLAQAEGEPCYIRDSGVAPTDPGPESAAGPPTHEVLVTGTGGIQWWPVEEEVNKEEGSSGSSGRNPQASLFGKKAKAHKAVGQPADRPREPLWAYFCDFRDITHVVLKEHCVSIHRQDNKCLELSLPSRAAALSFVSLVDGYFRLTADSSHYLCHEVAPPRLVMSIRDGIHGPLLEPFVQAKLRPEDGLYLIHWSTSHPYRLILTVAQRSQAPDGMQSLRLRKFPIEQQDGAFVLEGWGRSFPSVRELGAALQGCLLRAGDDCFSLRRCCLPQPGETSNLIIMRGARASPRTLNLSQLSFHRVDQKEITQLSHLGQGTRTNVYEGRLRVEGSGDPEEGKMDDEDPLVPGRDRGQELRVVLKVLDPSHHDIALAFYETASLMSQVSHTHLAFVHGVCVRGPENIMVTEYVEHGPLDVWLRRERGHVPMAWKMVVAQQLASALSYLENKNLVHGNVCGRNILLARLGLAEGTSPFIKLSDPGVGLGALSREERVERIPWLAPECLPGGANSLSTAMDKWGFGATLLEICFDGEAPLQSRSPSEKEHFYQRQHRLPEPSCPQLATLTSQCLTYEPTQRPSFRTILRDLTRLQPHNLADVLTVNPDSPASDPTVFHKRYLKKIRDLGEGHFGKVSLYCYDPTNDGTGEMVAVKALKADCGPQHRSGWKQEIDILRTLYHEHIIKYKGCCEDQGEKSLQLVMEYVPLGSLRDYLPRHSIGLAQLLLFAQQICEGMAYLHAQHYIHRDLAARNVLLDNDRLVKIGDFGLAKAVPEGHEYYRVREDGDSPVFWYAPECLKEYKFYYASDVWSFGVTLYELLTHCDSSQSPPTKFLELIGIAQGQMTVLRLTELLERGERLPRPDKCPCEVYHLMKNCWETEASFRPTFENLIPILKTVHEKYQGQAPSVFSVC

For `COc1cc(NC(=O)c2ccccc2)cnc1-n1nc(C)c2cnc(-c3cnn4cccnc34)cc21` [Example 48, N-(5-methoxy-6-(3-methyl-6-(pyrazolo[1,5-a]pyrimidin-3-yl)-1H-pyrazolo[4,3-c]pyridin-1-yl)pyridin-3-yl)benzamide], the IC50 is at most 5.01 nM on JAK 3, 5.01 to 50.1 nM on JAK 1, 5.01 to 50.1 nM on TYK2 and at most 5.01 nM at JAK 2.

Turning to `CNS(=O)(=O)c1ccc(-n2nc(C)c3cnc(-c4cnn5cccnc45)cc32)c(OC)c1` [Example 49, 3-methoxy-N-methyl-4-(3-methyl-6-(pyrazolo[1,5-a]pyrimidin-3-yl)-1H-pyrazolo[4,3-c]pyridin-1-yl)benzenesulfonamide], the IC50 on JAK 3 was at most 5.01 nM; on JAK 1 it was 5.01 to 50.1 nM; at TYK2, over 50.1 nM; on JAK 2 it was at most 5.01 nM.

As for `CNS(=O)(=O)c1ccc(-n2nc(NCCN3CCOCC3)c3cnc(-c4cnn5cccnc45)cc32)c(OC)c1` [Example 50, 3-methoxy-N-methyl-4-(3-((2-morpholinoethyl)amino)-6-(pyrazolo[1,5-a]pyrimidin-3-yl)-1H-pyrazolo[4,3-c]pyridin-1-yl)benzenesulfonamide], the IC50 at JAK 3 is at most 5.01 nM; at JAK 1, at most 5.01 nM; at TYK2, 5.01 to 50.1 nM; at JAK 2, at most 5.01 nM.

As for `CNc1nn(-c2ccc(S(=O)(=O)NC)cc2OC)c2cc(-c3cnn4cccnc34)ncc12` [Example 51, 3-methoxy-N-methyl-4-(3-(methylamino)-6-(pyrazolo[1,5-a]pyrimidin-3-yl)-1H-pyrazolo[4,3-c]pyridin-1-yl)benzenesulfonamide], the IC50 is at most 5.01 nM at JAK 3, at most 5.01 nM on JAK 1, 5.01 to 50.1 nM on TYK2 and at most 5.01 nM at JAK 2.

As to `CNS(=O)(=O)c1ccc(-n2nc(NCCCN(C)C)c3cnc(-c4cnn5cccnc45)cc32)c(OC)c1` [Example 52, 4-(3-((3-(dimethylamino)propyl)amino)-6-(pyrazolo[1,5-a]pyrimidin-3-yl)-1H-pyrazolo[4,3-c]pyridin-1-yl)-3-methoxy-N-methylbenzenesulfonamide], the IC50 at JAK 3 was at most 5.01 nM; at JAK 1 it was 5.01 to 50.1 nM; at TYK2 it was 5.01 to 50.1 nM; at JAK 2, at most 5.01 nM.

As to `COc1cc(CNS(C)(=O)=O)ccc1-n1nc(NCCN2CCOCC2)c2cnc(-c3cnn4cccnc34)cc21` [Example 53, N-(3-methoxy-4-(3-((2-morpholinoethyl)amino)-6-(pyrazolo[1,5-a]pyrimidin-3-yl)-1H-pyrazolo[4,3-c]pyridin-1-yl)benzyl)methanesulfonamide], the IC50 is at most 5.01 nM on JAK 3, at most 5.01 nM at JAK 1, 5.01 to 50.1 nM at TYK2 and at most 5.01 nM at JAK 2.

Turning to `COc1cc(CNS(C)(=O)=O)ccc1-n1nc(NCCN2CCCCC2)c2cnc(-c3cnn4cccnc34)cc21` [Example 54, N-(3-methoxy-4-(3-((2-(piperidin-1-yl)ethyl)amino)-6-(pyrazolo[1,5-a]pyrimidin-3-yl)-1H-pyrazolo[4,3-c]pyridin-1-yl)benzyl)methanesulfonamide], the IC50 on JAK 3 is 5.01 to 50.1 nM; on JAK 1, 5.01 to 50.1 nM; on TYK2, 5.01 to 50.1 nM; on JAK 2, at most 5.01 nM.

As to `CNc1nn(-c2ccc(CNS(C)(=O)=O)cc2OC)c2cc(-c3cnn4cccnc34)ncc12` [Example 55, N-(3-methoxy-4-(3-(methylamino)-6-(pyrazolo[1,5-a]pyrimidin-3-yl)-1H-pyrazolo[4,3-c]pyridin-1-yl)benzyl)methanesulfonamide], the IC50 at JAK 3 is at most 5.01 nM; on JAK 1, at most 5.01 nM; on TYK2, 5.01 to 50.1 nM; at JAK 2, at most 5.01 nM.

Take `COc1cc(CNS(C)(=O)=O)ccc1-n1nc(NCCN(C)C)c2cnc(-c3cnn4cccnc34)cc21` [Example 56, N-(4-(3-((2-(dimethylamino)ethyl)amino)-6-(pyrazolo[1,5-a]pyrimidin-3-yl)-1H-pyrazolo[4,3-c]pyridin-1-yl)-3-methoxybenzyl)methanesulfonamide]: the IC50 on JAK 3 was at most 5.01 nM; on JAK 1, at most 5.01 nM; at TYK2 it was 5.01 to 50.1 nM; at JAK 2 it was at most 5.01 nM.

Regarding `CNc1nn(-c2cc(Cl)c(CNS(C)(=O)=O)cc2OC)c2cc(-c3cnn4cccnc34)ncc12` [Example 57, N-(2-chloro-5-methoxy-4-(3-(methylamino)-6-(pyrazolo[1,5-a]pyrimidin-3-yl)-1H-pyrazolo[4,3-c]pyridin-1-yl)benzyl)methanesulfonamide], the IC50 on JAK 3 was at most 5.01 nM; at JAK 1 it was at most 5.01 nM; at TYK2 it was 5.01 to 50.1 nM; on JAK 2 it was at most 5.01 nM.

Consider `COc1cc(CNS(C)(=O)=O)c(Cl)cc1-n1nc(NCCN2CCOCC2)c2cnc(-c3cnn4cccnc34)cc21` [Example 58, N-(2-chloro-5-methoxy-4-(3-((2-morpholinoethyl)amino)-6-(pyrazolo[1,5-a]pyrimidin-3-yl)-1H-pyrazolo[4,3-c]pyridin-1-yl)benzyl)methanesulfonamide], for which the IC50 at JAK 3 is 5.01 to 50.1 nM; at JAK 1, at most 5.01 nM; on TYK2, 5.01 to 50.1 nM; at JAK 2, 5.01 to 50.1 nM.

For `COc1cc(CNS(C)(=O)=O)ccc1-n1nc(C(=O)NCCCN(C)C)c2cnc(-c3cnn4cccnc34)cc21` [Example 59, N-(3-(dimethylamino)propyl)-1-(2-methoxy-4-(methylsulfonamidomethyl)phenyl)-6-(pyrazolo[1,5-a]pyrimidin-3-yl)-1H-pyrazolo[4,3-c]pyridine-3-carboxamide], the IC50 on JAK 3 was 5.01 to 50.1 nM; at JAK 1, at most 5.01 nM; on TYK2 it was 5.01 to 50.1 nM; at JAK 2 it was 5.01 to 50.1 nM.

As for `COc1cc(CNS(C)(=O)=O)ccc1-n1nc(CC#N)c2cnc(-c3cnn4cccnc34)cc21` [Example 60, N-(4-(3-(cyanomethyl)-6-(pyrazolo[1,5-a]pyrimidin-3-yl)-1H-pyrazolo[4,3-c]pyridin-1-yl)-3-methoxybenzyl)methanesulfonamide], the IC50 on JAK 3 is at most 5.01 nM; at JAK 1, at most 5.01 nM; at TYK2 it was 5.01 to 50.1 nM; on JAK 2, at most 5.01 nM.

In the case of `Cc1nn(-c2ccc(CNS(C)(=O)=O)cc2OC(F)F)c2cc(-c3cnn4cccnc34)ncc12` [Example 61, N-(3-(difluoromethoxy)-4-(3-methyl-6-(pyrazolo[1,5-a]pyrimidin-3-yl)-1H-pyrazolo[4,3-c]pyridin-1-yl)benzyl)methanesulfonamide], the IC50 on JAK 3 was at most 5.01 nM; on JAK 1, at most 5.01 nM; on TYK2, 5.01 to 50.1 nM; on JAK 2, at most 5.01 nM.

`COc1cc(C(C)NS(C)(=O)=O)ccc1-n1nc(C)c2cnc(-c3cnn4cccnc34)cc21` (centres unmarked) [Example 62, N-(1-(3-methoxy-4-(3-methyl-6-(pyrazolo[1,5-a]pyrimidin-3-yl)-1H-pyrazolo[4,3-c]pyridin-1-yl)phenyl)ethyl)methanesulfonamide]: the IC50 at JAK 3 is at most 5.01 nM; on JAK 1, at most 5.01 nM; at TYK2, over 50.1 nM; at JAK 2, at most 5.01 nM.

For `COc1cc(CNS(C)(=O)=O)ccc1-n1nc(C)c2cnc(-c3cnn4cccnc34)cc21` [Example 63, N-(3-methoxy-4-(3-methyl-6-(pyrazolo[1,5-a]pyrimidin-3-yl)-1H-pyrazolo[4,3-c]pyridin-1-yl)benzyl)methanesulfonamide], the IC50 on JAK 3 is at most 5.01 nM; on JAK 1, at most 5.01 nM; on TYK2 it was 5.01 to 50.1 nM; at JAK 2, at most 5.01 nM.

In the case of `COc1cc(CNS(=O)(=O)C2CC2)ccc1-n1nc(C)c2cnc(-c3cnn4cccnc34)cc21` [Example 64, N-(3-methoxy-4-(3-methyl-6-(pyrazolo[1,5-a]pyrimidin-3-yl)-1H-pyrazolo[4,3-c]pyridin-1-yl)benzyl)cyclopropanesulfonamide], the IC50 at JAK 3 is at most 5.01 nM; at JAK 1, at most 5.01 nM; at TYK2 it was 5.01 to 50.1 nM; on JAK 2, at most 5.01 nM.

Regarding `COc1cc(CN(C)S(C)(=O)=O)ccc1-n1nc(C)c2cnc(-c3cnn4cccnc34)cc21` [Example 65, N-(3-methoxy-4-(3-methyl-6-(pyrazolo[1,5-a]pyrimidin-3-yl)-1H-pyrazolo[4,3-c]pyridin-1-yl)benzyl)-N-methylmethanesulfonamide], the IC50 at JAK 3 is at most 5.01 nM; at JAK 1 it was at most 5.01 nM; at TYK2, 5.01 to 50.1 nM; on JAK 2, at most 5.01 nM.

For `COc1cc(CO)ccc1-n1nc(C)c2cnc(-c3cnn4cccnc34)cc21` [Example 66, (3-methoxy-4-(3-methyl-6-(pyrazolo[1,5-a]pyrimidin-3-yl)-1H-pyrazolo[4,3-c]pyridin-1-yl)phenyl)methanol], the IC50 was 5.01 to 50.1 nM on JAK 3, 5.01 to 50.1 nM at JAK 1, over 50.1 nM at TYK2 and 5.01 to 50.1 nM at JAK 2.

As to `COc1cc(CN)ccc1-n1nc(C)c2cnc(-c3cnn4cccnc34)cc21` [Example 67, (3-methoxy-4-(3-methyl-6-(pyrazolo[1,5-a]pyrimidin-3-yl)-1H-pyrazolo[4,3-c]pyridin-1-yl)phenyl)methanamine], the IC50 at JAK 3, at JAK 1, at TYK2 and at JAK 2 was over 50.1 nM throughout.

The values are drawn from patent publication US20240209001A1, “HETEROCYCLIC DERIVATIVES AS JANUS KINASE INHIBITORS” (CHIESI FARMACEUTICI S.P. A., priority 2021, published 2024).
